ChEMBL document CHEMBL4359904, “Structural tuning of acridones for developing anticancer agents targeting dihydrofolate reductase” (Bioorg Med Chem Lett, 2019)
The source made the active and inactive calls. No cut-off for these calls is given here.

Legend:
SF-268 = assay: Growth inhibition of human SF268 cells incubated for 48 hrs by sulforhodamine B assay; type: functional; conditions: SF-268, 48 h; for TGI: read-out: pTGI (converted)
KM12 = assay: Growth inhibition of human KM12 cells incubated for 48 hrs by sulforhodamine B assay; type: functional; conditions: KM12, 48 h; for CC50: read-out: pLC50 (the source's name) (converted); for TGI: read-out: pTGI (converted)
Malme-3M = assay: Growth inhibition of human MALME-3M cells incubated for 48 hrs by sulforhodamine B assay; type: functional; conditions: for CC50: read-out: pLC50 (the source's name) (converted); for TGI: read-out: pTGI (converted)
NCI/ADR-RES = assay: Growth inhibition of human NCI/ADR-RES cells incubated for 48 hrs by sulforhodamine B assay; type: functional; conditions: for CC50: read-out: pLC50 (the source's name) (converted); for TGI: read-out: pTGI (converted)
NCI-H226 = assay: Growth inhibition of human NCI-H226 cells incubated for 48 hrs by sulforhodamine B assay; type: functional; conditions: NCI-H226, 48 h; for TGI: read-out: pTGI (converted)
K562 = assay: Growth inhibition of human K562 cells incubated for 48 hrs by sulforhodamine B assay; type: functional; conditions: K562, 48 h; for CC50: read-out: pLC50 (the source's name) (converted); for TGI: read-out: pTGI
MCF7 = assay: Growth inhibition of human MCF7 cells at 10^-5 M incubated for 48 hrs by sulforhodamine B assay relative to control; type: functional; conditions: MCF7, 48 h, read-out: GI
Hs-578T = assay: Growth inhibition of human Hs578T cells incubated for 48 hrs by sulforhodamine B assay; type: functional; conditions: for CC50: read-out: pLC50 (the source's name) (converted); for TGI: read-out: pTGI (converted)
U-251 = assay: Growth inhibition of human U251 cells incubated for 48 hrs by sulforhodamine B assay; type: functional; conditions: U-251, 48 h; for CC50: read-out: pLC50 (the source's name) (converted); for TGI: read-out: pTGI (converted)
IGROV-1 = assay: Growth inhibition of human IGROV1 cells incubated for 48 hrs by sulforhodamine B assay; type: functional; conditions: IGROV-1, 48 h; for CC50: read-out: pLC50 (the source's name) (converted); for TGI: read-out: pTGI (converted)
HL-60(TB) = assay: Growth inhibition of human HL-60(TB) cells incubated for 48 hrs by sulforhodamine B assay; type: functional; conditions: HL-60, 48 h; for TGI: read-out: pTGI (converted)
C6 [1] = assay: Induction of morphological changes in rat C6 cells assessed as increase in total length of processes measured after 24 hrs by inverted microscopy analysis relative to control; type: functional
[2] = biological target: T1, Dihydrofolate reductase (Homo sapiens) (UniProt P00374); assay: Competitive inhibition of human dihydrofolate reductase at 30 uM using varying levels of dihydrofolic acid as substrate preincubated for 1 hr in presence of NADPH followed by substrate addition by Line weaver-Burk based double reciprocal plot analysis
T1 sequence (whole entry): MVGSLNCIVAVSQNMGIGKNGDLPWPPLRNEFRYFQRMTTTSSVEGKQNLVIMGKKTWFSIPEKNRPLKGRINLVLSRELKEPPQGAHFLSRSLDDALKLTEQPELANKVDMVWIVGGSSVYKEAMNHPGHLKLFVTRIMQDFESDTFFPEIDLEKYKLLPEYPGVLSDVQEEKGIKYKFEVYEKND

TK-10 = assay: Growth inhibition of human TK10 cells incubated for 48 hrs by sulforhodamine B assay; type: functional; conditions: TK-10, 48 h; for CC50: read-out: pLC50 (the source's name) (converted); for TGI: read-out: pTGI (converted)
SK-OV-3 = assay: Growth inhibition of human SKOV3 cells incubated for 48 hrs by sulforhodamine B assay; type: functional; conditions: SK-OV-3, 48 h; for CC50: read-out: pLC50 (the source's name) (converted)
UACC-62 = assay: Growth inhibition of human UACC62 cells incubated for 48 hrs by sulforhodamine B assay; type: functional; conditions: UACC-62, 48 h; for CC50: read-out: pLC50 (the source's name) (converted); for TGI: read-out: pTGI (converted)
MOLT-4 = assay: Growth inhibition of human MOLT4 cells at 10^-5 M incubated for 48 hrs by sulforhodamine B assay relative to control; type: functional; conditions: MOLT-4, 48 h, read-out: GI
SK-MEL-2 = assay: Growth inhibition of human SK-MEL-2 cells incubated for 48 hrs by sulforhodamine B assay; type: functional; conditions: SK-MEL-2, 48 h; for CC50: read-out: pLC50 (the source's name) (converted); for TGI: read-out: pTGI (converted)
EKVX = assay: Growth inhibition of human EKVX cells incubated for 48 hrs by sulforhodamine B assay; type: functional; conditions: for CC50: read-out: pLC50 (the source's name) (converted); for TGI: read-out: pTGI (converted)
LOX IMVI = assay: Growth inhibition of human LOXIMVI cells incubated for 48 hrs by sulforhodamine B assay; type: functional; conditions: for TGI: read-out: pTGI (converted)
SF-539 = assay: Growth inhibition of human SF539 cells incubated for 48 hrs by sulforhodamine B assay; type: functional; conditions: SF-539, 48 h; for CC50: read-out: pLC50 (the source's name) (converted); for TGI: read-out: pTGI (converted)
SK-MEL-5 = assay: Growth inhibition of human SK-MEL-5 cells incubated for 48 hrs by sulforhodamine B assay; type: functional; conditions: SK-MEL-5, 48 h; for CC50: read-out: pLC50 (the source's name) (converted); for TGI: read-out: pTGI (converted)
C6 [3] = assay: Cell cycle arrest in rat C6 cells assessed as decrease in cell population at S phase measured after 24 hrs by propidium iodide staining based flow cytometry analysis; type: functional
C6 [4] = assay: Induction of morphological changes in rat C6 cells assessed as apperance of differentiated morphology with fine and elongated processes after 24 hrs by inverted microscopy analysis; type: functional, cell-based
HT-29 = assay: Growth inhibition of human HT-29 cells incubated for 48 hrs by sulforhodamine B assay; type: functional; conditions: HT-29, 48 h; for CC50: read-out: pLC50 (the source's name) (converted); for TGI: read-out: pTGI (converted)
C6 [5] = assay: Induction of morphological changes in rat C6 cells assessed as cellular senescence by measuring cell rounding with distorted morphology after 24 hrs by inverted microscopy analysis; type: functional, cell-based
[6] = read-out: pLC50 (the source's name) (converted)
[7] = read-out: LC50 (the source's name)

O=C(OC[C@@H]1CO1)c1cccc2c(=O)c3ccccc3[nH]c12
GI50 (SF-268; read-out: pGI50 (converted)): 1.62 µM
CC50 (SF-268; [6]): > 100 µM
TGI (SF-268): 6.03 µM
GI50 (KM12): 2.19 µM
CC50 (KM12): > 100 µM
TGI (KM12): 7.08 µM
GI50 (Malme-3M): 1.66 µM
CC50 (Malme-3M): 6.17 µM
TGI (Malme-3M): 3.16 µM
GI50 (NCI/ADR-RES): 1.7 µM
CC50 (NCI/ADR-RES): > 100 µM
TGI (NCI/ADR-RES): 6.31 µM
GI50 (NCI-H226): 1.58 µM
TGI (NCI-H226): 3.47 µM
GI50 (K562): 2.19 µM
CC50 (K562): > 100 µM
TGI (K562): > 100 µM
inhibition of growth at 10 µM (MCF7): 100%
GI50 (Hs-578T): 2.04 µM
CC50 (Hs-578T): > 100 µM
TGI (Hs-578T): 5.89 µM
GI50 (U-251): 1.82 µM
CC50 (U-251): 50.1 µM
TGI (U-251): 7.24 µM
GI50 (IGROV-1): 1.55 µM
CC50 (IGROV-1): > 100 µM
TGI (IGROV-1): 5.62 µM
GI50 (HL-60(TB)): 1.29 µM
CC50 (HL-60(TB); [6]): 8.51 µM
TGI (HL-60(TB)): 3.31 µM
Activity (C6 [1]): 85.53%
inhibition [2]: Active
GI50 (TK-10): 2.34 µM
CC50 (TK-10): > 100 µM
TGI (TK-10): 6.76 µM
GI50 (SK-OV-3): 2.63 µM
CC50 (SK-OV-3): > 100 µM
TGI (SK-OV-3; read-out: pTGI (converted)): 7.41 µM
GI50 (UACC-62): 1.58 µM
CC50 (UACC-62): 6.03 µM
TGI (UACC-62): 3.09 µM
inhibition of growth at 10 µM (MOLT-4): 99%
GI50 (SK-MEL-2): 1.95 µM
CC50 (SK-MEL-2): 7.41 µM
TGI (SK-MEL-2): 3.8 µM
GI50 (EKVX): 2.57 µM
CC50 (EKVX): > 100 µM
TGI (EKVX): 6.46 µM
GI50 (LOX IMVI; read-out: pGI50 (converted)): 1.51 µM
CC50 (LOX IMVI; [6]): 6.61 µM
TGI (LOX IMVI): 3.16 µM
GI50 (SF-539): 1.78 µM
CC50 (SF-539): 7.76 µM
TGI (SF-539): 3.72 µM
GI50 (SK-MEL-5): 1.51 µM
CC50 (SK-MEL-5): 5.5 µM
TGI (SK-MEL-5): 2.88 µM
inhibition (C6 [3]): Active
Activity (C6 [4]): Active
GI50 (HT-29): 2.24 µM
CC50 (HT-29): > 100 µM
TGI (HT-29): 7.94 µM

O=c1c2ccccc2n(CC2CO2)c2ccccc12 (racemic)
GI50 (SF-268; read-out: GI50): 0.16 µM
CC50 (SF-268; [7]): > 100 µM
GI50 (SF-268; read-out: pGI50 (converted)): 0.17 µM
CC50 (SF-268; [6]): > 100 µM
TGI (SF-268): 1.12 µM
GI50 (KM12): 0.269 µM
CC50 (KM12): 7.76 µM
TGI (KM12): 0.977 µM
GI50 (Malme-3M): 0.589 µM
CC50 (Malme-3M): 4.9 µM
TGI (Malme-3M): 2 µM
GI50 (NCI/ADR-RES): 0.257 µM
CC50 (NCI/ADR-RES): > 100 µM
TGI (NCI/ADR-RES): 1.1 µM
GI50 (NCI-H226): 0.302 µM
CC50 (NCI-H226; [6]): > 100 µM
TGI (NCI-H226): 1.48 µM
GI50 (K562): 0.214 µM
CC50 (K562): > 100 µM
TGI (K562): > 100 µM
Activity (C6 [5]): Active
inhibition of growth at 10 µM (MCF7): 100%
GI50 (Hs-578T): 0.575 µM
CC50 (Hs-578T): > 100 µM
TGI (Hs-578T): 3.89 µM
GI50 (U-251): 0.282 µM
CC50 (U-251): > 100 µM
TGI (U-251): 1.35 µM
GI50 (IGROV-1): 0.331 µM
CC50 (IGROV-1): 67.6 µM
TGI (IGROV-1): 2.57 µM
GI50 (HL-60(TB)): 0.204 µM
TGI (HL-60(TB)): 0.49 µM
Activity (C6 [1]): 16 - 18%
GI50 (TK-10): 0.479 µM
CC50 (TK-10): > 100 µM
TGI (TK-10): 3.09 µM
GI50 (SK-OV-3): 1.41 µM
CC50 (SK-OV-3): > 100 µM
GI50 (UACC-62): 0.234 µM
CC50 (UACC-62): 2.4 µM
TGI (UACC-62): 0.603 µM
inhibition of growth at 10 µM (MOLT-4): 100%
GI50 (SK-MEL-2): 0.234 µM
CC50 (SK-MEL-2): 2.04 µM
TGI (SK-MEL-2): 0.513 µM
GI50 (EKVX): 1.38 µM
CC50 (EKVX): > 100 µM
TGI (EKVX): 5.01 µM
GI50 (LOX IMVI; read-out: GI50): 0.12 µM
CC50 (LOX IMVI; [7]): 5.12 µM
GI50 (LOX IMVI; read-out: pGI50 (converted)): 0.126 µM
CC50 (LOX IMVI; [6]): 5.13 µM
TGI (LOX IMVI): 0.646 µM
GI50 (SF-539): 0.347 µM
CC50 (SF-539): > 100 µM
TGI (SF-539): 1.78 µM
GI50 (SK-MEL-5): 0.209 µM
CC50 (SK-MEL-5): 1.12 µM
TGI (SK-MEL-5): 0.468 µM
GI50 (HT-29): 0.316 µM
CC50 (HT-29): 23.4 µM
TGI (HT-29): 0.871 µM
